Measured values as given in patent US20060111381A1, “Amidine compounds” (priority 2002, published 2006).
Where “and” joins values, the source holds several entries; their conditions need not be identical. Identical values can stand only once. Counter-ions that a name gives are not always drawn.

How the values were obtained:
human δ-opiate receptor = biological target: T1, human δ-opiate receptor (Homo sapiens, UniProt P41143); assay: In vitro opiate receptor radioligand binding assay (MDS 260110); settings: test compound 10 μM, read-out: Percentage Inhibition of Radioligand Binding
T1 construct: purchased MDS Pharma Services 260110
Description: (§1) To characterise the target specificity of the compounds, KRS-6-41, KRS-6-48 and KRS-6-51 were tested at a concentration of 10 μM for their ability to inhibit the binding of a radioligand to human δ-, κ-, or μ-opiate receptors in vitro using commercially available assays (MDS Pharma Services; assay catalogue numbers 260110, 260210 and 260410 respectively).

human μ-opiate receptor = biological target: T2, human μ-opiate receptor (Homo sapiens, UniProt P35372); assay: In vitro opiate receptor radioligand binding assay (MDS 260410); settings: test compound 10 μM, read-out: Percentage Inhibition of Radioligand Binding
T2 construct: purchased MDS Pharma Services 260410
Description: as §1

ICR mice [1] = assay: Phenylquinone-induced writhing model in mice (writhes counted in following 5-10 minute period); assay type: in vivo; settings: for No. of Writhings, Individual: individual mice; for % Inhibition: relative to vehicle group
Description: (§2) Testing on compound KRS-6-48 was carried out under contract by MDS Services—Taiwan Ltd. KRS-6-48 was evaluated for possible analgesic activity in the phenylquinone-induced writhing model in mice (Siegmund et al, 1957). A serial 2-fold dosage variance was used in the test, from 128 mg/kg to 1 mg/kg (8 doses in total). Groups of 3 male or female ICR mice weighing 22±2 g were employed. Variant doses (1, 2, 4, 8, 16, 32, 64 and 128 mg/kg) of test substances were administered intraperitoneally (IP). A vehicle of 2% Tween 80 in 0.9% NaCl was used for the intraperitoneal injection. The control group received vehicle alone. […] A reduction in the number of writhes by 50 percent or more (≧50%) relative to the vehicle-treated group indicated possible analgesic activity.
Testing on compounds KRS-6-41, KRS-6-51, and KRS-6-71 was also carried out under contract by MDS Services—Taiwan Ltd. The study was designed to evaluate the effects of the compounds as analgesics in the phenylquinone-induced writhing assay described in detail in Example 10 (Siegmund et al, 1957).
as §2, with “In each case, a” for “Testing on compound KRS-6-48 was carried out under contract by MDS Services—Taiwan Ltd. KRS-6-48 was evaluated for possible analgesic activity in the phenylquinone-induced writhing model in mice (Siegmund et al, 1957). A”

ICR mice [2] = assay: Deaths and adverse signs observed in writhing-study mice; assay type: in vivo; settings: 128 mg/kg IP
Description: as §2
as §2, with “In each case, a” for “Testing on compound KRS-6-48 was carried out under contract by MDS Services—Taiwan Ltd. KRS-6-48 was evaluated for possible analgesic activity in the phenylquinone-induced writhing model in mice (Siegmund et al, 1957). A”

human κ-opiate receptor = biological target: T3, human κ-opiate receptor (Homo sapiens, UniProt P41145); assay: In vitro opiate receptor radioligand binding assay (MDS 260210); settings: test compound 10 μM, read-out: Percentage Inhibition of Radioligand Binding
T3 construct: purchased MDS Pharma Services 260210
Description: as §1

ICR mice [3] = assay: Straub tail behaviour (indicator of CNS activity) in writhing-study mice; settings: any doses (1 to 128 mg/kg IP)

T2 sequence (P35372 whole entry): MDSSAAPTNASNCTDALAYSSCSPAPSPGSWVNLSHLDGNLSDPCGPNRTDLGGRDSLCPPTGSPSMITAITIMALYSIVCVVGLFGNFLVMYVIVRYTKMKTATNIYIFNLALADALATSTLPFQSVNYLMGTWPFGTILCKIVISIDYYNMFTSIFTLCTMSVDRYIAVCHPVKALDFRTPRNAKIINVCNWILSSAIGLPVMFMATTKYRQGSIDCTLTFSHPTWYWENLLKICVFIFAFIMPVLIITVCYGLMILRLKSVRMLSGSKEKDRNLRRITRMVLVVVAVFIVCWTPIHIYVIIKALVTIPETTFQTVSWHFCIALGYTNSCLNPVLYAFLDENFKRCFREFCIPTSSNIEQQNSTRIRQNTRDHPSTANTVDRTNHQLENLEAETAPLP
T3 sequence (P41145 whole entry): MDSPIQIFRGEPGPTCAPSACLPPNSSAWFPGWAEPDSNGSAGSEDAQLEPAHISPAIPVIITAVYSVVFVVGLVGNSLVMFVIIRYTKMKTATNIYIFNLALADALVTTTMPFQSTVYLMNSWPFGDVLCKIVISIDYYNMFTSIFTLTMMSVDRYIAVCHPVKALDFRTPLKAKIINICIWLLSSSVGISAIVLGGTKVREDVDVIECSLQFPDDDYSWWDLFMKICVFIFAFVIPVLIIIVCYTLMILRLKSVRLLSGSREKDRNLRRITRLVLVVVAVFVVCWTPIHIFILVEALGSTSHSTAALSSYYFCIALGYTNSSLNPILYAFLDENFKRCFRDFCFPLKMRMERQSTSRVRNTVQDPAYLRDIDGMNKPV
T1 sequence (P41143 whole entry): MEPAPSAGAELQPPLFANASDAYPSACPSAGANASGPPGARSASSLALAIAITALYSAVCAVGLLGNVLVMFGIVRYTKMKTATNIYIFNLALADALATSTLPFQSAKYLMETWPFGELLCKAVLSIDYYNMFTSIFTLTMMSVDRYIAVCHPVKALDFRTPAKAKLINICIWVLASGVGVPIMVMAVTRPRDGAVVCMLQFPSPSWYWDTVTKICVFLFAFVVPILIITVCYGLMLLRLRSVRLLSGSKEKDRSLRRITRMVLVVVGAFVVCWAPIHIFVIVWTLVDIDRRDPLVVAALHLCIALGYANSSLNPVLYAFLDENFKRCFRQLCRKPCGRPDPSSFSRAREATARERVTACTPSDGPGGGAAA

CCC(=Nc1ccccc1)NCCCN1CC[C@]23c4c5ccc(O)c4O[C@H]2[C@@H](O)C=CC3[C@H]1C5 (stereo partly drawn) (as salt: HCl) [KRS-6-48, (5α,6α)-7,8-didehydro-4,5-epoxy-17-((N-phenylpropionamidino)-propyl)morphinan, 3,6-diol]
melting point: 188 to 190 °C

CC(=Nc1ccccc1)NCCCN1CC[C@]23c4c5ccc(O)c4O[C@H]2[C@@H](O)C=CC3[C@H]1C5 (stereo partly drawn) [KRS-6-51, (5α,6α)-7,8-didehydro-4,5-epoxy-17-((N-phenylacetamidino)-propyl)morphinan, 3,6-diol]
inhibition at 10 µM (human δ-opiate receptor): 37%
inhibition at 10 µM (human μ-opiate receptor): 97%
No. of Writhings, Average (ICR mice [1]; 1 mg/kg IP): 12
No. of Writhings, Individual (ICR mice [1]; 1 mg/kg IP): 11 and 14 and 12
% Inhibition (ICR mice [1]; 1 mg/kg IP): 20%
No. of Writhings, Average (ICR mice [1]; 2 mg/kg IP): 11
No. of Writhings, Individual (ICR mice [1]; 2 mg/kg IP): 18 and 9 and 7
% Inhibition (ICR mice [1]; 2 mg/kg IP): 27%
No. of Writhings, Average (ICR mice [1]; 4 mg/kg IP): 10
No. of Writhings, Individual (ICR mice [1]; 4 mg/kg IP): 10 and 13 and 7
% Inhibition (ICR mice [1]; 4 mg/kg IP): 33%
No. of Writhings, Average (ICR mice [1]; 8 mg/kg IP): 8
No. of Writhings, Individual (ICR mice [1]; 8 mg/kg IP): 9 and 8 (2×)
% Inhibition (ICR mice [1]; 8 mg/kg IP): 47%
No. of Writhings, Average (ICR mice [1]; 16 mg/kg IP): 8
No. of Writhings, Individual (ICR mice [1]; 16 mg/kg IP): 12 and 4 and 7
% Inhibition (ICR mice [1]; 16 mg/kg IP): 47%
No. of Writhings, Average (ICR mice [1]; 32 mg/kg IP): 5
No. of Writhings, Individual (ICR mice [1]; 32 mg/kg IP): 3 and 5 and 7
% Inhibition (ICR mice [1]; 32 mg/kg IP): 67%
No. of Writhings, Average (ICR mice [1]; 64 mg/kg IP): 0
No. of Writhings, Individual (ICR mice [1]; 64 mg/kg IP): 0
% Inhibition (ICR mice [1]; 64 mg/kg IP): 100%
No. of Writhings, Individual (ICR mice [1]; 128 mg/kg IP): died and 0 (2×)
analgesic activity in writhing model (in words) (ICR mice [1]; at doses of 64 and 32 mg/kg IP): significant activity
test animals exhibiting tremors and edema (ICR mice [2]): 2 of the 3
test animals died within 15 minutes (ICR mice [2]; within 15 minutes): 21 of the 3
inhibition at 10 µM (human κ-opiate receptor): 54%
Straub tail behaviour (ICR mice [3]): None of the test animals exhibited Straub tail behaviour

CCC(=Nc1ccccc1)NCCCN1CC[C@]23c4c5ccc(O)c4O[C@H]2[C@@H](O)C=CC3[C@H]1C5 (stereo partly drawn) [KRS-6-48, (5α,6α)-7,8-didehydro-4,5-epoxy-17-((N-phenylpropionamidino)-propyl)morphinan, 3,6-diol]
inhibition at 10 µM (human δ-opiate receptor): 29%
inhibition at 10 µM (human μ-opiate receptor): 97%
No. of Writhings, Average (ICR mice [1]; 1 mg/kg IP): 14
No. of Writhings, Individual (ICR mice [1]; 1 mg/kg IP): 10 and 20 and 13
% Inhibition (ICR mice [1]; 1 mg/kg IP): 0%
No. of Writhings, Average (ICR mice [1]; 2 mg/kg IP): 13
No. of Writhings, Individual (ICR mice [1]; 2 mg/kg IP): 8 and 20 and 10
% Inhibition (ICR mice [1]; 2 mg/kg IP): 0%
No. of Writhings, Average (ICR mice [1]; 4 mg/kg IP): 9
No. of Writhings, Individual (ICR mice [1]; 4 mg/kg IP): 10 and 8 and 9
% Inhibition (ICR mice [1]; 4 mg/kg IP): 31%
No. of Writhings, Average (ICR mice [1]; 8 mg/kg IP): 7
No. of Writhings, Individual (ICR mice [1]; 8 mg/kg IP): 12 and 4 and 5
% Inhibition (ICR mice [1]; 8 mg/kg IP): 46%
No. of Writhings, Average (ICR mice [1]; 16 mg/kg IP): 6
No. of Writhings, Individual (ICR mice [1]; 16 mg/kg IP): 1 and 13 and 4
% Inhibition (ICR mice [1]; 16 mg/kg IP): 54%
No. of Writhings, Average (ICR mice [1]; 32 mg/kg IP): 1
No. of Writhings, Individual (ICR mice [1]; 32 mg/kg IP): 0 and 1 (2×)
% Inhibition (ICR mice [1]; 32 mg/kg IP): 92%
No. of Writhings, Average (ICR mice [1]; 64 mg/kg IP): 0
No. of Writhings, Individual (ICR mice [1]; 64 mg/kg IP): 0
% Inhibition (ICR mice [1]; 64 mg/kg IP): 100%
No. of Writhings, Average (ICR mice [1]; 128 mg/kg IP): 0
No. of Writhings, Individual (ICR mice [1]; 128 mg/kg IP): 0
% Inhibition (ICR mice [1]; 128 mg/kg IP): 100%
analgesic activity in writhing model (in words) (ICR mice [1]; at doses of 128, 64, 32 and 16 mg/kg IP): Very significant activity
inhibition at 10 µM (human κ-opiate receptor): 48%
Straub tail behaviour (ICR mice [3]): did not exhibit Straub tail behaviour
